# Laboratory results: PubChem BioAssay (NCI)
#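 Test compounds were applied to cells in 96-well plates for 48 hours at 5 doses. TGI marks complete inhibition of growth.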
# Legend:
# Assay in all cases: NCI anticancer screen, dose series, 48 h
# [1] = test system: 786-0 renal
# [2] = test system: A498 renal
# [3] = test system: A549 NSCLC
# [4] = test system: ACHN renal
# [5] = test system: BT-549 breast
# [6] = test system: CAKI-1 renal
# [7] = test system: CCRF-CEM leukemia
# [8] = test system: COLO 205 colon
# [9] = test system: DU-145 prostate
# [10] = test system: EKVX NSCLC
# [11] = test system: HCC-2998 colon
# [12] = test system: HCT-116 colon
# [13] = test system: HCT-15 colon
# [14] = test system: HL-60(TB) leukemia
# [15] = test system: HOP-62 NSCLC
# [16] = test system: HOP-92 NSCLC
# [17] = test system: HS 578T breast
# [18] = test system: HT29 colon
# [19] = test system: IGROV1 ovarian
# [20] = test system: K-562 leukemia
# [21] = test system: KM12 colon
# [22] = test system: LOX IMVI melanoma
# [23] = test system: M14 melanoma
# [24] = test system: MCF7 breast
# [25] = test system: MDA-MB-231 breast
# [26] = test system: MDA-MB-435
# [27] = test system: MDA-N
# [28] = test system: MOLT-4 leukemia
# [29] = test system: NCI-H226 lung
# [30] = test system: NCI-H23 lung
# [31] = test system: NCI-H460 lung
# [32] = test system: NCI-H522 lung
# [33] = test system: NCI/ADR-RES ovarian
# [34] = test system: OVCAR-3 ovarian
# [35] = test system: OVCAR-4 ovarian
# [36] = test system: OVCAR-5 ovarian
# [37] = test system: OVCAR-8 ovarian
# [38] = test system: PC-3 prostate
# [39] = test system: RPMI-8226 leukemia
# [40] = test system: RXF 393 renal
# [41] = test system: SF-268 CNS
# [42] = test system: SF-295 CNS
# [43] = test system: SF-539 CNS
# [44] = test system: SK-MEL-2 melanoma
# [45] = test system: SK-MEL-28 melanoma
# [46] = test system: SK-MEL-5 melanoma
# [47] = test system: SK-OV-3 ovarian
# [48] = test system: SN12C renal
# [49] = test system: SNB-19 CNS
# [50] = test system: SNB-75 CNS
# [51] = test system: SR leukemia
# [52] = test system: SW-620 colon
# [53] = test system: T-47D breast
# [54] = test system: TK-10 renal
# [55] = test system: U251 CNS
# [56] = test system: UACC-257 melanoma
# [57] = test system: UACC-62 melanoma
# [58] = test system: UO-31 renal
# [59] = test system: MALME-3M melanoma
compound,measurement,setting,value
Cc1ccc2nc3sc(=O)sc3nc2c1,TGI,[1],28.8 µM
same,TGI,[2],20.2 µM
same,TGI,[3],29.6 µM
same,TGI,[4],28.5 µM
same,TGI,[5],28.7 µM
same,TGI,[6],30 µM
same,TGI,[7],> 100 µM
same,TGI,[8],27.8 µM
same,TGI,[9],> 100 µM
same,TGI,[10],27.2 µM
same,TGI,[11],30.2 µM
same,TGI,[12],30.9 µM
same,TGI,[13],31.3 µM
same,TGI,[14],44.1 µM
same,TGI,[15],30.6 µM
same,TGI,[16],28.9 µM
same,TGI,[17],61.8 µM
same,TGI,[18],31.2 µM
same,TGI,[19],31.7 µM
same,TGI,[20],75.6 µM
same,TGI,[21],28.9 µM
same,TGI,[22],28.2 µM
same,TGI,[23],33.5 µM
same,TGI,[24],31.4 µM
same,TGI,[25],32.1 µM
same,TGI,[26],29.8 µM
same,TGI,[27],32 µM
same,TGI,[28],50.1 µM
same,TGI,[29],27.9 µM
same,TGI,[30],42.5 µM
same,TGI,[31],26.6 µM
same,TGI,[32],35.7 µM
same,TGI,[33],30.9 µM
same,TGI,[34],27.7 µM
same,TGI,[35],26.8 µM
same,TGI,[36],30.8 µM
same,TGI,[37],28.6 µM
same,TGI,[38],27.3 µM
same,TGI,[39],59.1 µM
same,TGI,[40],67.8 µM
same,TGI,[41],30.1 µM
same,TGI,[42],31 µM
same,TGI,[43],35.1 µM
same,TGI,[44],29 µM
same,TGI,[45],48.9 µM
same,TGI,[46],29.1 µM
same,TGI,[47],34.6 µM
same,TGI,[48],29 µM
same,TGI,[49],36.7 µM
same,TGI,[50],64.8 µM
same,TGI,[51],80.2 µM
same,TGI,[52],67.9 µM
same,TGI,[53],> 100 µM
same,TGI,[54],30 µM
same,TGI,[55],30.8 µM
same,TGI,[56],32.1 µM
same,TGI,[57],32.5 µM
same,TGI,[58],28.9 µM
Nc1nc2c(c(=O)[nH]1)N=C(COP(=O)(O)OP(=O)(O)O)CN2,TGI,[1],> 100 µM
same,TGI,[2],> 100 µM
same,TGI,[3],> 100 µM
same,TGI,[4],> 100 µM
same,TGI,[5],> 100 µM
same,TGI,[6],> 100 µM
same,TGI,[7],> 100 µM
same,TGI,[8],> 100 µM
same,TGI,[9],> 100 µM
same,TGI,[10],> 100 µM
same,TGI,[11],> 100 µM
same,TGI,[12],> 100 µM
same,TGI,[13],> 100 µM
same,TGI,[14],> 100 µM
same,TGI,[15],> 100 µM
same,TGI,[17],> 100 µM
same,TGI,[18],> 100 µM
same,TGI,[19],> 100 µM
same,TGI,[20],> 100 µM
same,TGI,[21],> 100 µM
same,TGI,[22],> 100 µM
same,TGI,[23],> 100 µM
same,TGI,[59],> 100 µM
same,TGI,[24],> 100 µM
same,TGI,[25],> 100 µM
same,TGI,[26],> 100 µM
same,TGI,[27],> 100 µM
same,TGI,[28],> 100 µM
same,TGI,[29],> 100 µM
same,TGI,[30],> 100 µM
same,TGI,[32],> 100 µM
same,TGI,[33],> 100 µM
same,TGI,[36],> 100 µM
same,TGI,[37],> 100 µM
same,TGI,[38],> 100 µM
same,TGI,[39],> 100 µM
same,TGI,[40],> 100 µM
same,TGI,[41],> 100 µM
same,TGI,[42],> 100 µM
same,TGI,[43],> 100 µM
same,TGI,[44],> 100 µM
same,TGI,[45],> 100 µM
same,TGI,[46],> 100 µM
same,TGI,[47],> 100 µM
same,TGI,[48],> 100 µM
same,TGI,[49],> 100 µM
same,TGI,[50],> 100 µM
same,TGI,[51],> 100 µM
same,TGI,[52],> 100 µM
same,TGI,[53],> 100 µM
same,TGI,[54],> 100 µM
same,TGI,[55],> 100 µM
same,TGI,[56],> 100 µM
same,TGI,[57],> 100 µM
same,TGI,[58],> 100 µM
